Values quoted from earlier work in patent publication US20160030469A1, “Human End Uses for a Gas Transporting Rheological Medium” (priority 2014, published 2016).

Conditions: equilibrium with air (pO2=0.21) at 77° F.

- solubility limit of oxygen in water: approximately 8.3 mg/l
Structure (SMILES): O=O [oxygen]
